Assay: xn = mol fraction of the nth substance listed
Settings: Liquid, Vibrating tube method

CC(C)=O [acetone] + CCCCCCC
Settings | mass density [kg/m3]
367.5 K, 89850 kPa, x1 = 0.801 | 760.09
367.5 K, 89870 kPa, x1 = 0.492 | 727.6
367.5 K, 94840 kPa, x1 = 0.801 | 763.33
367.5 K, 94860 kPa, x1 = 0.492 | 730.65
367.5 K, 99820 kPa, x1 = 0.801 | 766.48
367.5 K, 104790 kPa, x1 = 0.801 | 769.51
367.5 K, 109770 kPa, x1 = 0.801 | 772.47
367.5 K, 114840 kPa, x1 = 0.801 | 775.42
367.5 K, 119830 kPa, x1 = 0.801 | 778.22
367.5 K, 124850 kPa, x1 = 0.801 | 780.96
367.5 K, 129850 kPa, x1 = 0.801 | 783.62
377.39 K, 1230 kPa, x1 = 0.611 | 632.91
377.39 K, 4860 kPa, x1 = 0.611 | 640.68
377.39 K, 9830 kPa, x1 = 0.7024 | 659.14
377.39 K, 9860 kPa, x1 = 0.611 | 650.09
377.39 K, 14860 kPa, x1 = 0.611 | 658.35
377.39 K, 39860 kPa, x1 = 0.611 | 690.09
377.39 K, 74880 kPa, x1 = 0.611 | 720.69
377.39 K, 84850 kPa, x1 = 0.611 | 727.78
377.39 K, 99800 kPa, x1 = 0.611 | 737.52
377.39 K, 119850 kPa, x1 = 0.611 | 749.19
377.39 K, 124860 kPa, x1 = 0.611 | 751.9
377.4 K, 1220 kPa, x1 = 0.492 | 624.83
377.4 K, 1220 kPa, x1 = 0.7024 | 641.88
377.4 K, 1230 kPa, x1 = 0.801 | 652.62
377.4 K, 4820 kPa, x1 = 0.7024 | 649.63
377.4 K, 4850 kPa, x1 = 0.801 | 660.44
377.4 K, 4860 kPa, x1 = 0.492 | 632.5
377.4 K, 9850 kPa, x1 = 0.492 | 641.73
377.4 K, 9860 kPa, x1 = 0.801 | 669.95
377.4 K, 14830 kPa, x1 = 0.7024 | 667.51
377.4 K, 14850 kPa, x1 = 0.801 | 678.33
377.4 K, 14860 kPa, x1 = 0.492 | 649.89
377.4 K, 19830 kPa, x1 = 0.7024 | 675.07
377.4 K, 19850 kPa, x1 = 0.492 | 657.2
377.4 K, 19850 kPa, x1 = 0.801 | 685.9
377.4 K, 19860 kPa, x1 = 0.611 | 665.8
377.4 K, 24840 kPa, x1 = 0.492 | 663.85
377.4 K, 24840 kPa, x1 = 0.7024 | 681.95
377.4 K, 24860 kPa, x1 = 0.611 | 672.6
377.4 K, 24870 kPa, x1 = 0.801 | 692.89
377.4 K, 29840 kPa, x1 = 0.7024 | 688.29
377.4 K, 29860 kPa, x1 = 0.611 | 678.86
377.4 K, 34830 kPa, x1 = 0.7024 | 694.18
377.4 K, 34840 kPa, x1 = 0.492 | 675.68
377.4 K, 34870 kPa, x1 = 0.611 | 684.68
377.4 K, 39820 kPa, x1 = 0.7024 | 699.65
377.4 K, 39850 kPa, x1 = 0.492 | 681.01
377.4 K, 44820 kPa, x1 = 0.7024 | 704.82
377.4 K, 44850 kPa, x1 = 0.611 | 695.17
377.4 K, 44870 kPa, x1 = 0.492 | 686.02
377.4 K, 49820 kPa, x1 = 0.7024 | 709.68
377.4 K, 49840 kPa, x1 = 0.492 | 690.72
377.4 K, 49850 kPa, x1 = 0.611 | 699.96
377.4 K, 54810 kPa, x1 = 0.7024 | 714.29
377.4 K, 54870 kPa, x1 = 0.801 | 725.65
377.4 K, 54930 kPa, x1 = 0.611 | 704.59
377.4 K, 59810 kPa, x1 = 0.7024 | 718.67
377.4 K, 59840 kPa, x1 = 0.492 | 699.41
377.4 K, 59850 kPa, x1 = 0.801 | 730.07
377.4 K, 59940 kPa, x1 = 0.611 | 708.91
377.4 K, 64790 kPa, x1 = 0.7024 | 722.84
377.4 K, 64830 kPa, x1 = 0.801 | 734.28
377.4 K, 64920 kPa, x1 = 0.611 | 713
377.4 K, 69890 kPa, x1 = 0.7024 | 726.94
377.4 K, 69900 kPa, x1 = 0.611 | 716.92
377.4 K, 69920 kPa, x1 = 0.492 | 707.37
377.4 K, 69930 kPa, x1 = 0.801 | 738.44
377.4 K, 74790 kPa, x1 = 0.4 | 757.14
377.4 K, 74790 kPa, x1 = 0.8992 | 757.14
377.4 K, 74870 kPa, x1 = 0.7024 | 730.75
377.4 K, 74920 kPa, x1 = 0.801 | 742.33
377.4 K, 79860 kPa, x1 = 0.7024 | 734.43
377.4 K, 79880 kPa, x1 = 0.611 | 724.31
377.4 K, 79890 kPa, x1 = 0.492 | 714.63
377.4 K, 79910 kPa, x1 = 0.801 | 746.08
377.4 K, 84840 kPa, x1 = 0.7024 | 737.97
377.4 K, 84870 kPa, x1 = 0.492 | 718.02
377.4 K, 84910 kPa, x1 = 0.801 | 749.68
377.4 K, 89820 kPa, x1 = 0.7024 | 741.37
377.4 K, 89840 kPa, x1 = 0.611 | 731.15
377.4 K, 89860 kPa, x1 = 0.492 | 721.32
377.4 K, 89880 kPa, x1 = 0.801 | 753.15
377.4 K, 94790 kPa, x1 = 0.7024 | 744.65
377.4 K, 94820 kPa, x1 = 0.611 | 734.38
377.4 K, 94830 kPa, x1 = 0.492 | 724.48
377.4 K, 94860 kPa, x1 = 0.801 | 756.48
377.4 K, 99780 kPa, x1 = 0.7024 | 747.85
377.4 K, 99820 kPa, x1 = 0.492 | 727.55
377.4 K, 99840 kPa, x1 = 0.801 | 759.75
377.4 K, 104750 kPa, x1 = 0.7024 | 750.93
377.4 K, 104780 kPa, x1 = 0.611 | 740.53

— the NIST ThermoML archive (doi:10.1016/j.fluid.2010.10.028)
